From patent publication US7022737B2, “Manipulating nitrosative stress to kill pathologic microbes, pathologic helminths and pathologically proliferating cells or to upregulate nitrosative stress defenses” (Duke University, priority 1996, dated 2006)

Tests used:
[1] = tested on: Giardia lamblia; assay: Patient with Giardia lamblia infection; type: in vivo; settings: 4 mmol/kg four times a day p.o. with metronidazole 500 mg twice a day p.o. for five days
[2] = tested on: small cell lung cancer; assay: Patients with small cell lung cancer; type: in vivo; settings: cyclophosphamide, NO-substituted doxirubicin IV and BSO 4 mmol/kg IV four times/day; chest X-ray in two months
Protocol: A person with a 80 pack-year history of smoking presents with hemoptosis and weight loss. […] The patient is given a combination therapy of cyclophosphamide (750 mg/m^2) plus NO-substituted doxirubicin (40 mg/m^2) and vincristine (2 mg) (all administered i.v.). The therapeutic regimen is repeated once at three weeks.
A person with a 20 pack/year history of smoking presents with cough. […] The patient receives cyclophosphamide (750 mg/m^2 and NO-substituted doxirubicin (administered IV)). The patient also receives L-buthionine-S-sulfoximine, i.e., BSO (4 mmol/kg IV four times/day).

[3] = tested on: restenosis; assay: Patients with coronary stenosis treated to prevent restenosis; type: in vivo
Text: BSO therapy is continued for one week.
A person with blue eyes and gray hair presents with chest pain. […] The patient undergoes balloon angioplasty and placement of a Palmaz-Schatz stent, which is P^32-implanted and coated with a cyclodextran polymer to which BSO is attached by an ester linkage.
A patient similar to the one described above undergoes balloon angioplasty and placement of a Palmaz-Schatz stent which is coated with cyclodextran polymer to which ethyl maleate is attached by an ester linkage. […]
A person with restenosis six months post angioplasty has a Palmaz-Schatz stent placed. The stent is coated with a porous polymer containing 10% of the siderophore ferrioxamine B and 0.1% each of interleukin-1 and interferon-gamma. The latter agents induce the local expression of the inducible isoform of nitric oxide synthase. […]

[4] = tested on: herpes labialis; assay: Patient with recurrent herpes labialis; type: in vivo; settings: in Denavir (pencicyclovir cream), topically every two hours while awake
Text: A homosexually active person developed a recurrent herpes labialis (cold sore) on their lips and face. Therapy with Denavir (pencicyclovir cream) that contains buthionine sulfoximine is applied topically every two hours while awake.

[5] = tested on: metastatic malignant melanoma; assay: Patient with metastatic malignant melanoma; type: in vivo; settings: L-buthionine-S-sulfoximine 2 mmol/kg p.o. every 4 hours and hydroxyurea 10 mg/kg p.o., one week
Protocol: A person […] and a history of surgery five years previously to remove malignant melanotic nevi from their upper back and chest is found to have blood in their stool on routine physical examination. […] The patient is administered L-buthionine-S-sulfoximine (2 mmol/kg) p.o. every 4 hours for one week and is given 10 mg/kg of hydroxyurea p.o. 1 hour after every third dose of L-buthionine-S-sulfoximine. […] The patient shown no further evidence of metastases during a six month follow-up.

[6] = target: T1, gamma-glutamylcysteinyl synthetase (gamma-GCS) (Rattus norvegicus, UniProt P19468); settings: mammalian systems, literature; cited from earlier work
T1 sequence (P19468 1-637): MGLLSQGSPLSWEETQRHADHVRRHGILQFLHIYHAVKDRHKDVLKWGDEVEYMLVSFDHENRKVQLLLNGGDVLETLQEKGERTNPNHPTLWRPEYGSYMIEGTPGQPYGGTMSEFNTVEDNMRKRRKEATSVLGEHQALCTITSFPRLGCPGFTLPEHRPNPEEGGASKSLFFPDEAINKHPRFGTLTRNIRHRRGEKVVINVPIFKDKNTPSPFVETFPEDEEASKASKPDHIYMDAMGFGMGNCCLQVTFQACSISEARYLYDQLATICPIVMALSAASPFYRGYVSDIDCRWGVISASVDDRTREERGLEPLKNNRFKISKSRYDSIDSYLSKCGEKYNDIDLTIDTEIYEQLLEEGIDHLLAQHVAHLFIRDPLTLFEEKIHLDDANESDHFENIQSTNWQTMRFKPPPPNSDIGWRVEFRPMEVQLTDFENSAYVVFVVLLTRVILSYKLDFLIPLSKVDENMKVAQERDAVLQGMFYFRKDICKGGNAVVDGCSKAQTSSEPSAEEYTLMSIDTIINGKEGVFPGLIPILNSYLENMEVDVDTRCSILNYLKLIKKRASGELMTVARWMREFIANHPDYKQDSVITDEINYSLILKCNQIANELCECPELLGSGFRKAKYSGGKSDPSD
T1 sequence (P48508 1-274 partner): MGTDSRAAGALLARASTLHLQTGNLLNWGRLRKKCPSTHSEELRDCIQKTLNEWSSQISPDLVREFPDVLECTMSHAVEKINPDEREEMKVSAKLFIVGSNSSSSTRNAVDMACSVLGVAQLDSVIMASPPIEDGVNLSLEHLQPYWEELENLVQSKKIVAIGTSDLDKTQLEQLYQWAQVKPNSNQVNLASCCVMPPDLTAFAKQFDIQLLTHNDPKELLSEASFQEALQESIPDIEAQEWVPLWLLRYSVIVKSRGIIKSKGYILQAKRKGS

[7] = tested on: restenosis; assay: Patients with coronary stenosis treated to prevent restenosis; type: in vivo; settings: BSO 4 mmol/kg four times a day intracoronary for one week, 32P-implanted Palmaz-Schatz stent

For CCCCS(=N)(=O)CC[C@H](N)C(=O)O (stereo partly drawn) [L-buthionine-S-sulfoximine], the clinical outcome [1] was “stool culture becomes negative for Giardia after five days”, the clinical outcome [2] was “decrease in size of the mass” and the clinical outcome ([3]; P^32-implanted stent coated with cyclodextran polymer with BSO attached by ester linkage) was “clinical restenosis does not occur”. The clinical outcome ([3]; verapamil 80 mg three times a day p.o., BSO 4 mmol/kg i.v. four times a day, NO-releasing polymer stent) was “repeat angiogram at six months shows no restenosis”, the “mean duration of the lesion versus Denavir without BSO” value [4] was “half the time shorter” and the “reduction in size of metastatic tumor” value [5] was 30%. For the same molecule, the “inhibition of gamma-GCS” value [6] was “most effectively inhibited” and the clinical outcome [7] was “repeat of their angiogram shows no restenosis”.
